Patent US7351858B2, “Ortho-substituted benzoic acid derivatives for the treatment of insulin resistance” (AstraZeneca AB, priority 2002, dated 2008)

Target: T1, human PPAR alpha (Homo sapiens, UniProt Q07869)
T1 construct: expressed in transfected cells; host or cells: U2-OS (human osteogenic sarcoma), transient electroporation of a pSG5-based expression vector
T1 sequence (Q07869 239-466 limits assumed): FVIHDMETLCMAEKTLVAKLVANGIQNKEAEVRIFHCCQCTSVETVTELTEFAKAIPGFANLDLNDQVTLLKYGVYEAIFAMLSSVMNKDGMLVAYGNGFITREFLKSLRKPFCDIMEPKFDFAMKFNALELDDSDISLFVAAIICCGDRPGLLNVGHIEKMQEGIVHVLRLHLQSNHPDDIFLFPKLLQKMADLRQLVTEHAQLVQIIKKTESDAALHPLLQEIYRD
Experiment: GAL4-PPARα ligand binding domain luciferase reporter transactivation assay in transiently transfected U2-OS cells
Assay type: cell-based
Settings: about 24 hours exposure, concentration giving 50% of maximal activation by reference compound ETYA
Experimental: U2-OS, (Osteogenic sarcoma, Human) was purchased from ATCC, USA. Cells were expanded and refrozen in batches from passage number six. Cells were cultured in Dulbecco's modified Eagle medium (DMEM) with 25 mM glucose, 2 mM glutamine or 4 mM L-alanyl-L-glutamine, 10% fetal calf serum, at 5% CO2. Phosphate buffered saline (PBS) without addition of calcium or magnesium was used. All cell culture reagents were from Gibco (USA) and 96-well cell culture plates were purchased from Wallach.
Standard recombinant DNA techniques were carried out as described by Ausubel (7). The Luciferase reporter vector, pGL5UAS (clone consists of five copies of the GAL4 DNA binding sequence, 5′-[…]-3′, cloned into the SacI/XhoI sites of pGL3-Promoter (Promega). The SacI/XhoI fragment carrying the UAS sites was constructed using annealed overlapping oligonucleotides.
Expression vectors used are based upon pSG5 (Stratagene). All vectors contain an EcoRI/NheI fragment encoding the DNA binding domain of GAL4 (encoding amino acid positions 1-145 of database accession number P04386) followed by an in-frame fusion to a fragment encoding the nuclear localisation sequence from T antigen of Polyoma Virus. […]
After adjustment of the amount of cell medium to 75 μl in each well, 50 μl test compound solution was added. […] After lysis, luciferase activity was measured in a 1420 Multiwell counter, Victor, from Wallach. […]

| EC50 [nM] | Structure (SMILES) |
| --- | --- |
| 499 | CCN(Cc1ccc(Cl)cc1)C(=O)COc1ccc(CCSc2ccccc2C(=O)O)cc1 [Example 3, 2-{[2-(4-{2-[(4-chlorobenzyl)(ethyl)amino]-2-oxoethoxy}phenyl)ethyl]thio}benzoic acid] |
| 48 | CCN(Cc1ccc(C(F)(F)F)cc1)C(=O)COc1ccc(CCOc2ccccc2C(=O)O)cc1 [Example 5, 2-[2-(4-{2-[Ethyl(4-trifluoromethylbenzyl)amino]-2-oxoethoxy}phenyl)ethoxy]benzoic acid] |
